In ChEMBL document CHEMBL1201862, “PubChem BioAssay data set” (2004):
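Following 48 hours of exposure in 96-well plates, responses at five concentrations were used to interpolate endpoints linearly. GI50 marks 50% less growth.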 Activity calls are given as the source filed them. Rule as the data show it: active = GI50 up to about 1.1 µM and inactive = higher.

Key:
Experiment in all cases: NCI anticancer screen, dose series, 48 h
[1] = tested on: Malme-3M
[2] = tested on: CCRF-CEM
[3] = tested on: SNB-19
[4] = tested on: SF-295
[5] = tested on: IGROV-1
[6] = tested on: MDA-MB-435
[7] = tested on: LOX IMVI
[8] = tested on: NCI-H23
[9] = tested on: CAKI-1
[10] = tested on: SK-MEL-2
[11] = tested on: NCI/ADR-RES
[12] = tested on: OVCAR-8
[13] = tested on: RPMI-8226
[14] = tested on: HCC 2998
[15] = tested on: NCI-H522
[16] = tested on: BT-549
[17] = tested on: PC-3
[18] = tested on: SW-620
[19] = tested on: MDA-MB-231
[20] = tested on: KM12
[21] = tested on: HL-60
[22] = tested on: U-251
[23] = tested on: HOP-62
[24] = tested on: 786-0
[25] = tested on: DU-145
[26] = tested on: OVCAR-5
[27] = tested on: ACHN
[28] = tested on: HT-29
[29] = tested on: SK-MEL-28
[30] = tested on: T47D
[31] = tested on: NCI-H460
[32] = tested on: SNB-75
[33] = tested on: UO-31
[34] = tested on: SK-MEL-5
[35] = tested on: OVCAR-4
[36] = tested on: A549
[37] = tested on: SN12C
[38] = tested on: HCT-116
[39] = tested on: MCF7
[40] = tested on: SF-268
[41] = tested on: UACC-257
[42] = tested on: COLO 205
[43] = tested on: MDA-N
[44] = tested on: SF-539
[45] = tested on: Hs-578T
[46] = tested on: TK-10
[47] = tested on: OVCAR-3
[48] = tested on: SK-OV-3
[49] = tested on: UACC-62
[50] = tested on: NCI-H226
[51] = tested on: HCT-15
[52] = tested on: EKVX
[53] = tested on: MOLT-4
[54] = tested on: M14
[55] = tested on: HOP-92
[56] = tested on: A498
[57] = tested on: SR
[58] = tested on: RXF 393
[59] = tested on: K562

Measured: GI50

Cc1cnc2c(c1)C(=O)N(c1ccc(Br)cc1)S2(=O)=O
inactive: [1] 35.6 µM | [2] > 100 µM | [3] > 100 µM | [4] > 100 µM | [5] 56.1 µM | [6] > 100 µM | [7] > 100 µM | [8] > 100 µM | [9] > 100 µM | [10] > 100 µM | [11] > 100 µM | [12] > 100 µM | [13] > 100 µM | [14] > 100 µM | [15] 19.5 µM | [16] > 100 µM | [17] > 100 µM | [18] > 100 µM | [19] > 100 µM | [20] > 100 µM | [21] 30.1 µM | [22] > 100 µM | [23] 50.5 µM | [24] > 100 µM | [25] > 100 µM | [26] > 100 µM | [27] > 100 µM | [28] > 100 µM | [29] > 100 µM | [30] > 100 µM | [31] > 100 µM | [32] 37.3 µM | [33] > 100 µM | [34] > 100 µM | [35] 44.4 µM | [36] > 100 µM | [37] > 100 µM | [38] > 100 µM | [39] > 100 µM | [40] 78.5 µM | [41] > 100 µM | [42] > 100 µM | [43] > 100 µM | [44] > 100 µM | [45] 24.5 µM | [46] > 100 µM | [47] > 100 µM | [48] > 100 µM | [49] > 100 µM | [50] 78 µM | [52] 35.6 µM | [53] > 100 µM | [54] > 100 µM
> 100 µM: [51]

O=C(Nc1ccccc1)N1CCNC1=S
> 100 µM: [51]
inactive: [1] > 100 µM | [2] > 100 µM | [4] > 100 µM | [5] > 100 µM | [55] > 100 µM | [6] > 100 µM | [7] > 100 µM | [8] > 100 µM | [9] > 100 µM | [10] > 100 µM | [11] > 100 µM | [12] > 100 µM | [13] > 100 µM | [14] 15.5 µM | [15] > 100 µM | [16] 65.5 µM | [18] > 100 µM | [19] > 100 µM | [20] > 100 µM | [21] > 100 µM | [22] > 100 µM | [23] > 100 µM | [24] > 100 µM | [25] > 100 µM | [26] > 100 µM | [27] > 100 µM | [28] > 100 µM | [29] > 100 µM | [30] 60.1 µM | [31] 57.9 µM | [32] 28.4 µM | [33] 57.3 µM | [34] > 100 µM | [35] 71.6 µM | [56] > 100 µM | [36] > 100 µM | [37] > 100 µM | [38] > 100 µM | [39] > 100 µM | [40] > 100 µM | [42] > 100 µM | [57] 69.2 µM | [43] > 100 µM | [44] > 100 µM | [45] 48 µM | [47] > 100 µM | [48] > 100 µM | [49] > 100 µM | [50] 87.5 µM | [52] 53 µM | [53] > 100 µM | [58] 26.5 µM | [54] > 100 µM | [59] > 100 µM

COc1cc(-c2nc(N)c(C#N)c3c2CCS(=O)(=O)c2ccc(C)cc2-3)cc(OC)c1OC
inactive: [1] 17.5 µM | [2] > 100 µM | [3] 7.05 µM | [5] 18.7 µM | [55] 9.16 µM | [6] > 100 µM | [7] > 100 µM | [8] 25.4 µM | [9] > 100 µM | [10] 49.7 µM | [11] 12.6 µM | [12] 4.98 µM | [13] > 100 µM | [14] > 100 µM | [15] > 100 µM | [16] 53 µM | [17] > 100 µM | [18] > 100 µM | [19] 17.3 µM | [20] > 100 µM | [21] > 100 µM | [22] 24.8 µM | [23] 22.9 µM | [24] 19.1 µM | [25] > 100 µM | [26] > 100 µM | [27] 28.6 µM | [28] > 100 µM | [29] > 100 µM | [30] 98.2 µM | [31] > 100 µM | [32] 16.7 µM | [33] > 100 µM | [34] > 100 µM | [35] > 100 µM | [56] 29.4 µM | [36] > 100 µM | [37] 39.6 µM | [38] > 100 µM | [40] > 100 µM | [41] > 100 µM | [42] > 100 µM | [57] > 100 µM | [43] > 100 µM | [45] 33.8 µM | [46] 9.98 µM | [47] > 100 µM | [49] > 100 µM | [50] 9.46 µM | [54] > 100 µM | [59] > 100 µM
> 100 µM: [51]

OCCOCCN1CCN(CCCN2c3ccccc3Sc3ccc(C(F)(F)F)cc32)CC1
active: [2] 0.337 µM | [30] 0.955 µM
inactive: [3] 14.4 µM | [4] 12.9 µM | [5] 9.84 µM | [55] 14.1 µM | [6] 11.1 µM | [7] 3.97 µM | [8] 16.4 µM | [9] 15.3 µM | [10] 19.4 µM | [12] 15.2 µM | [13] 3.17 µM | [14] 2.78 µM | [15] 14.7 µM | [16] 19.8 µM | [17] 15.6 µM | [18] 15.5 µM | [19] 11.1 µM | [20] 6.7 µM | [22] 12.3 µM | [23] 17.6 µM | [24] 16.6 µM | [25] 14.2 µM | [26] 14.3 µM | [27] 17.7 µM | [28] 2.33 µM | [29] 3.27 µM | [31] 9.95 µM | [32] 2.39 µM | [33] 5.74 µM | [34] 3.22 µM | [35] 15.7 µM | [56] 10.5 µM | [36] 13.1 µM | [37] 13.6 µM | [38] 7.91 µM | [39] 13.1 µM | [40] 16.5 µM | [41] 5.15 µM | [42] 1.75 µM | [43] 13 µM | [44] 12.4 µM | [45] 11.9 µM | [46] 11.7 µM | [47] 17.7 µM | [48] 19.5 µM | [49] 6.65 µM | [50] 16.4 µM | [52] 14.8 µM | [53] 13.1 µM | [58] 3.18 µM | [54] 2.65 µM | [59] 2.79 µM
21.6 µM: [51]

C=C(C)[C@@H]1CCC2=C(CC[C@]3(C)[C@@H]([C@@H](CCC=C(C)C)C(=O)O)[C@H](O)C[C@@]23C)[C@@]1(C)CCC(=O)O [PORICOIC ACID G]
active: [21] 0.0393 µM
inactive: [1] > 100 µM | [2] 63.2 µM | [3] 46 µM | [4] 50.4 µM | [5] 42.6 µM | [55] 32.1 µM | [6] > 100 µM | [7] 61.2 µM | [8] 87.3 µM | [9] 83.6 µM | [10] 70.3 µM | [11] > 100 µM | [12] > 100 µM | [13] 88.7 µM | [15] 44.2 µM | [16] 71.9 µM | [17] 45.6 µM | [18] > 100 µM | [19] > 100 µM | [20] 47.4 µM | [22] 22.4 µM | [23] 53.2 µM | [24] 85.9 µM | [25] > 100 µM | [26] 45.4 µM | [27] 75.2 µM | [28] 47.4 µM | [29] 66.8 µM | [30] > 100 µM | [31] 46.8 µM | [32] 60.5 µM | [33] > 100 µM | [34] 92.7 µM | [35] > 100 µM | [56] > 100 µM | [36] 42.1 µM | [37] 52.4 µM | [38] 54.1 µM | [40] 94.8 µM | [41] > 100 µM | [42] 52.8 µM | [57] 29.4 µM | [43] 86.3 µM | [44] 59.3 µM | [45] > 100 µM | [46] > 100 µM | [47] > 100 µM | [48] > 100 µM | [50] 57.3 µM | [52] 44.6 µM | [53] > 100 µM | [58] 41.4 µM | [54] 99.8 µM | [59] 53.2 µM
38.6 µM: [51]
